Results as given in paper PMC5218480 (PLoS ONE, 2017).

Tested on: MV-4-11 cells
Test: Gene expression microarray analysis (Affymetrix PrimeView) and GSEA
Assay type: cell-based, human
Set-up: RFU PODN (11730768_x_at) / Fold change /veh PODN (11730768_x_at) / RFU LINC00158 (11744669_a_at) / Fold change /veh LINC00158 (11744669_a_at) / RFU DUSP10 (11751237_a_at) / Fold change /veh DUSP10 (11751237_a_at) / RFU ID3 (11757404_x_at) / Fold change /veh ID3 (11757404_x_at) / RFU PLEKHG5 (11737974_s_at) / Fold change /veh PLEKHG5 (11737974_s_at) / RFU LRRC4B (11730491_at) / Fold change /veh LRRC4B (11730491_at) / RFU GIMAP4 (11747438_a_at) / Fold change /veh GIMAP4 (11747438_a_at) / RFU KRT8 (11758183_x_at) / Fold change /veh KRT8 (11758183_x_at) / RFU CNN1 (11734310_a_at) / Fold change /veh CNN1 (11734310_a_at) / RFU VPS37D (11726825_at) / Fold change /veh VPS37D (11726825_at) / RFU C10orf10 (11716522_x_at) / Fold change /veh C10orf10 (11716522_x_at) / RFU KIR2DL2 /// KIR2DL4 /// KIR2DL5A /// KIR2DL5B /// KIR2DS1 /// KIR2DS2 /// KIR2DS3 /// KIR2DS4 /// KIR3DL3 /// KIR3DL3 /// KIR3DS1 (11738374_at) / Fold change /veh KIR2DL2 /// KIR2DL4 /// KIR2DL5A /// KIR2DL5B /// KIR2DS1 /// KIR2DS2 /// KIR2DS3 /// KIR2DS4 /// KIR3DL3 /// KIR3DL3 /// KIR3DS1 (11738374_at) / RFU C1QL1 (11718748_at) / Fold change /veh C1QL1 (11718748_at) / RFU TMPRSS4 (11747572_a_at) / Fold change /veh TMPRSS4 (11747572_a_at) / RFU HAMP (11756126_x_at) / Fold change /veh HAMP (11756126_x_at) / RFU RNFT2 (11725882_a_at) / Fold change /veh RNFT2 (11725882_a_at) / RFU NR4A2 (11747474_a_at) / Fold change /veh NR4A2 (11747474_a_at) / RFU ABCC12 (11746883_a_at) / Fold change /veh ABCC12 (11746883_a_at) / RFU TMEM136 (11760407_x_at) / Fold change /veh TMEM136 (11760407_x_at) / RFU CLDN22 /// WWC2 (11732394_at) / Fold change /veh CLDN22 /// WWC2 (11732394_at) / RFU HLA-DPB1 (11760878_x_at) / Fold change /veh HLA-DPB1 (11760878_x_at) / RFU SPINT1 (11716480_a_at) / Fold change /veh SPINT1 (11716480_a_at) / RFU GAP43 (11754022_s_at) / Fold change /veh GAP43 (11754022_s_at) / RFU A4GNT (11735810_at) / Fold change /veh A4GNT (11735810_at) / RFU PRB3 (11715151_x_at) / Fold change /veh PRB3 (11715151_x_at) / RFU TUBB4B (11761932_at) / Fold change /veh TUBB4B (11761932_at) / RFU CAPN14 (11732068_a_at) / Fold change /veh CAPN14 (11732068_a_at) / RFU TMCC2 (11721928_a_at) / Fold change /veh TMCC2 (11721928_a_at) / RFU IRGQ (11745062_a_at) / Fold change /veh IRGQ (11745062_a_at) / RFU FAM174B (11720279_a_at) / Fold change /veh FAM174B (11720279_a_at) / RFU TMPRSS4 (11748680_a_at) / Fold change /veh TMPRSS4 (11748680_a_at) / RFU FAM212B (11763350_a_at) / Fold change /veh FAM212B (11763350_a_at) / RFU PLEKHG5 (11743358_a_at) / Fold change /veh PLEKHG5 (11743358_a_at) / RFU ZSCAN30 (11745921_a_at) / Fold change /veh ZSCAN30 (11745921_a_at) / RFU CMKLR1 (11741424_a_at) / Fold change /veh CMKLR1 (11741424_a_at) / RFU LOC101060620 /// MAPK8IP1 (11723275_at) / Fold change /veh LOC101060620 /// MAPK8IP1 (11723275_at) / RFU SPTSSB (11747773_x_at) / Fold change /veh SPTSSB (11747773_x_at) / RFU PRSS12 (11739890_at) / Fold change /veh PRSS12 (11739890_at) / RFU BIN1 (11741810_x_at) / Fold change /veh BIN1 (11741810_x_at) / RFU WNT11 (11732464_a_at) / Fold change /veh WNT11 (11732464_a_at) / RFU C10orf10 (11716521_a_at) / Fold change /veh C10orf10 (11716521_a_at) / RFU C5orf56 (11738089_at) / Fold change /veh C5orf56 (11738089_at) / RFU CYB561 (11721691_x_at) / Fold change /veh CYB561 (11721691_x_at) / RFU ANKRD19P (11752326_a_at) / Fold change /veh ANKRD19P (11752326_a_at) / RFU OR2T12 /// OR2T33 /// OR2T8 (11738714_s_at) / Fold change /veh OR2T12 /// OR2T33 /// OR2T8 (11738714_s_at) / RFU VCAN (11748164_a_at) / Fold change /veh VCAN (11748164_a_at) / RFU JSRP1 (11732532_at) / Fold change /veh JSRP1 (11732532_at) / RFU KRTAP10-11 (11738290_x_at) / Fold change /veh KRTAP10-11 (11738290_x_at) / RFU MYO3A (11730013_a_at) / Fold change /veh MYO3A (11730013_a_at) / RFU EBF3 (11725865_a_at) / Fold change /veh EBF3 (11725865_a_at) / RFU CAMK2N1 (11719241_x_at) / Fold change /veh CAMK2N1 (11719241_x_at) / RFU C5orf56 (11738088_a_at) / Fold change /veh C5orf56 (11738088_a_at) / RFU OLFML3 (11715873_a_at) / Fold change /veh OLFML3 (11715873_a_at) / RFU LOC100653217 /// NTM (11731650_a_at) / Fold change /veh LOC100653217 /// NTM (11731650_a_at) / RFU MAPK11 (11762145_a_at) / Fold change /veh MAPK11 (11762145_a_at) / RFU FIZ1 (11724087_x_at) / Fold change /veh FIZ1 (11724087_x_at) / RFU OASL (11726364_x_at) / Fold change /veh OASL (11726364_x_at) / RFU SOX15 (11748057_x_at) / Fold change /veh SOX15 (11748057_x_at) / RFU CD79A (11719716_a_at) / Fold change /veh CD79A (11719716_a_at) / RFU HIST1H1D (11736915_at) / Fold change /veh HIST1H1D (11736915_at) / RFU CASKIN2 (11723855_a_at) / Fold change /veh CASKIN2 (11723855_a_at) / RFU LOC730098 (11760151_x_at) / Fold change /veh LOC730098 (11760151_x_at) / RFU OR4N2 (11742367_at) / Fold change /veh OR4N2 (11742367_at) / RFU PRRT2 (11749266_a_at) / Fold change /veh PRRT2 (11749266_a_at) / RFU SNX32 (11753110_a_at) / Fold change /veh SNX32 (11753110_a_at) / RFU CDHR5 (11726645_a_at) / Fold change /veh CDHR5 (11726645_a_at) / RFU RCAN1 (11760418_a_at) / Fold change /veh RCAN1 (11760418_a_at) / RFU FAM167A (11723789_a_at) / Fold change /veh FAM167A (11723789_a_at) / RFU FAM26E (11764081_at) / Fold change /veh FAM26E (11764081_at) / RFU ISYNA1 (11749810_s_at) / Fold change /veh ISYNA1 (11749810_s_at) / RFU ACY1 (11761880_at) / Fold change /veh ACY1 (11761880_at) / RFU 11764098_at / Fold change /veh 11764098_at / RFU SAMD14 (11745864_x_at) / Fold change /veh SAMD14 (11745864_x_at) / RFU NPB (11741838_a_at) / Fold change /veh NPB (11741838_a_at) / RFU TMPRSS6 (11731388_a_at) / Fold change /veh TMPRSS6 (11731388_a_at) / RFU KRTAP10-2 (11738614_at) / Fold change /veh KRTAP10-2 (11738614_at) / RFU ARHGAP8 /// PRR5-ARHGAP8 (11727945_x_at) / Fold change /veh ARHGAP8 /// PRR5-ARHGAP8 (11727945_x_at) / RFU KRTAP5-7 /// NADSYN1 (11734609_at) / Fold change /veh KRTAP5-7 /// NADSYN1 (11734609_at) / RFU RASL12 (11751679_a_at) / Fold change /veh RASL12 (11751679_a_at) / RFU CDKN2B (11736163_a_at) / Fold change /veh CDKN2B (11736163_a_at) / RFU PRF1 (11729649_at) / Fold change /veh PRF1 (11729649_at) / RFU, ZNF638 /// ZNF638-IT1 / Fold change vs veh, ZNF638 /// ZNF638-IT1 / RFU, PANK3 / Fold change vs veh, PANK3 / RFU, SH3YL1 / Fold change vs veh, SH3YL1 / RFU, ZEB2 / Fold change vs veh, ZEB2 / RFU, NRIP1 / Fold change vs veh, NRIP1 / RFU, PTTG1IP / Fold change vs veh, PTTG1IP / RFU, CAPN2 / Fold change vs veh, CAPN2 / RFU, MED14 / Fold change vs veh, MED14 / RFU, SNORA58 / Fold change vs veh, SNORA58 / RFU, C1orf63 / Fold change vs veh, C1orf63 / RFU, LRRFIP1 / Fold change vs veh, LRRFIP1 / RFU, NDUFAF7 / Fold change vs veh, NDUFAF7 / RFU, SLC12A2 / Fold change vs veh, SLC12A2 / RFU, IBTK / Fold change vs veh, IBTK / RFU, ESF1 / Fold change vs veh, ESF1 / Fold change vs veh, TMEM50B / RFU, TAOK1 / Fold change vs veh, TAOK1 / RFU, ACBD3 / Fold change vs veh, ACBD3 / RFU, TMA16 / Fold change vs veh, TMA16 / RFU, RWDD3 / Fold change vs veh, RWDD3 / RFU, BCAT1 / Fold change vs veh, BCAT1 / RFU, EDEM3 / Fold change vs veh, EDEM3 / RFU, TMEM33 / Fold change vs veh, TMEM33 / RFU, WDR75 / Fold change vs veh, WDR75 / RFU, AHCTF1 / Fold change vs veh, AHCTF1 / RFU, TFRC / Fold change vs veh, TFRC / RFU, ZDHHC17 / Fold change vs veh, ZDHHC17 / RFU, NOM1 / Fold change vs veh, NOM1 / RFU, ARL8B / Fold change vs veh, ARL8B / RFU, ZBTB11 / Fold change vs veh, ZBTB11 / RFU, TAMM41 / Fold change vs veh, TAMM41 / RFU, KIAA1704 /// LOC100996395 / Fold change vs veh, KIAA1704 /// LOC100996395 / RFU, ING1 / Fold change vs veh, ING1 / RFU, TRMT61B / Fold change vs veh, TRMT61B / RFU, FUBP3 / Fold change vs veh, FUBP3 / RFU, TP53 / Fold change vs veh, TP53 / RFU, TNKS2 / Fold change vs veh, TNKS2 / RFU, ZFP14 / Fold change vs veh, ZFP14 / RFU, ACTR2 / Fold change vs veh, ACTR2 / RFU, PPP3R1 / Fold change vs veh, PPP3R1 / RFU, PIK3R1 / Fold change vs veh, PIK3R1 / RFU, HNRNPA1 / Fold change vs veh, HNRNPA1 / RFU, RNF170 / Fold change vs veh, RNF170 / RFU, ZNF28 / Fold change vs veh, ZNF28 / RFU, RNGTT / Fold change vs veh, RNGTT / RFU, OGT / Fold change vs veh, OGT / RFU, BRD1 / Fold change vs veh, BRD1 / RFU, MARS / Fold change vs veh, MARS / RFU, ZNF655 / Fold change vs veh, ZNF655 / RFU, FAHD1 / Fold change vs veh, FAHD1 / RFU, BDP1 / Fold change vs veh, BDP1 / RFU, LRRCC1 / Fold change vs veh, LRRCC1 / RFU, ARID1A / Fold change vs veh, ARID1A / RFU, ZNF146 / Fold change vs veh, ZNF146 / RFU, ZNF330 / Fold change vs veh, ZNF330 / RFU, GPN3 / Fold change vs veh, GPN3 / RFU, C9orf123 / Fold change vs veh, C9orf123 / RFU, N4BP2L2 / Fold change vs veh, N4BP2L2 / RFU, ARFIP1 / Fold change vs veh, ARFIP1 / RFU, FAM179B / Fold change vs veh, FAM179B / RFU, BCL10 / Fold change vs veh, BCL10 / RFU, UHRF1BP1L / Fold change vs veh, UHRF1BP1L / RFU, BET1 / Fold change vs veh, BET1 / RFU, CNOT2 / Fold change vs veh, CNOT2 / RFU, ZNF268 / Fold change vs veh, ZNF268 / Fold change vs veh, ZNF507 / RFU, DGCR2 / Fold change vs veh, DGCR2 / RFU, WDSUB1 / Fold change vs veh, WDSUB1 / Fold change vs veh, HSP90B1 /// MIR3652 / RFU, ADSS / Fold change vs veh, ADSS / RFU, GK / Fold change vs veh, GK / RFU, ZNF148 / Fold change vs veh, ZNF148 / RFU, TAF9 / Fold change vs veh, TAF9 / RFU, SLC1A5 / Fold change vs veh, SLC1A5 / RFU, SLMO2 / Fold change vs veh, SLMO2 / RFU, ABCC4 / Fold change vs veh, ABCC4 / RFU, LOC101060439 /// RAP1B / Fold change vs veh, LOC101060439 /// RAP1B / RFU, RFX7 / Fold change vs veh, RFX7 / RFU, GTPBP10 / Fold change vs veh, GTPBP10 / RFU, CNEP1R1 / Fold change vs veh, CNEP1R1 / RFU, BIVM-ERCC5 /// ERCC5 / Fold change vs veh, BIVM-ERCC5 /// ERCC5 / RFU, ILF3 / Fold change vs veh, ILF3 / RFU 11762660_at / Fold change /veh 11762660_at / RFU VCAN (11757783_s_at) / Fold change /veh VCAN (11757783_s_at) / RFU DDX43 (11728927_at) / Fold change /veh DDX43 (11728927_at) / RFU KRT8 (11758188_x_at) / Fold change /veh KRT8 (11758188_x_at) / RFU NKD1 (11759106_at) / Fold change /veh NKD1 (11759106_at) / RFU SRD5A1 (11742802_a_at) / Fold change /veh SRD5A1 (11742802_a_at) / RFU TPSAB1 /// TPSB2 (11721975_s_at) / Fold change /veh TPSAB1 /// TPSB2 (11721975_s_at) / RFU GSTM3 (11746129_a_at) / Fold change /veh GSTM3 (11746129_a_at) / RFU IL23R (11737362_x_at) / Fold change /veh IL23R (11737362_x_at) / RFU TMEM51 (11727254_a_at) / Fold change /veh TMEM51 (11727254_a_at) / RFU PIWIL2 (11732686_x_at) / Fold change /veh PIWIL2 (11732686_x_at) / RFU ORM1 (11744905_x_at) / Fold change /veh ORM1 (11744905_x_at) / RFU CCDC152 (11743942_at) / Fold change /veh CCDC152 (11743942_at) / RFU ECM1 (11717891_a_at) / Fold change /veh ECM1 (11717891_a_at) / RFU IL23R (11748794_a_at) / Fold change /veh IL23R (11748794_a_at) / RFU TNFAIP8L3 (11732012_x_at) / Fold change /veh TNFAIP8L3 (11732012_x_at) / RFU MBOAT4 (11741988_at) / Fold change /veh MBOAT4 (11741988_at) / RFU 11764193_at / Fold change /veh 11764193_at / RFU TMEM53 (11763286_at) / Fold change /veh TMEM53 (11763286_at) / RFU MAGEB2 (11727129_at) / Fold change /veh MAGEB2 (11727129_at) / RFU TMEM200A (11744735_a_at) / Fold change /veh TMEM200A (11744735_a_at) / RFU CCDC152 (11751479_a_at) / Fold change /veh CCDC152 (11751479_a_at) / RFU FAM211A (11726209_a_at) / Fold change /veh FAM211A (11726209_a_at) / RFU RGS16 (11746705_a_at) / Fold change /veh RGS16 (11746705_a_at) / RFU VCAN (11755009_s_at) / Fold change /veh VCAN (11755009_s_at) / RFU RHOB (11743442_s_at) / Fold change /veh RHOB (11743442_s_at) / RFU RGS16 (11720943_a_at) / Fold change /veh RGS16 (11720943_a_at) / RFU RGS16 (11720944_at) / Fold change /veh RGS16 (11720944_at) / RFU, VPS4B / Fold change vs veh, VPS4B / RFU, CREB1 / Fold change vs veh, CREB1 / RFU, DNAJC13 / Fold change vs veh, DNAJC13 / RFU, GNAQ / Fold change vs veh, GNAQ / RFU, CDK5R1 / Fold change vs veh, CDK5R1 / RFU, ZRANB3 / Fold change vs veh, ZRANB3 / RFU, CUL4A / Fold change vs veh, CUL4A / RFU, CCNY / Fold change vs veh, CCNY / RFU, UFL1 / Fold change vs veh, UFL1 / RFU, COG3 / Fold change vs veh, COG3 / RFU, DIAPH2 / Fold change vs veh, DIAPH2 / RFU, SKA2 / Fold change vs veh, SKA2 / RFU, AFF3 / Fold change vs veh, AFF3 / RFU, LMF1 / Fold change vs veh, LMF1 / RFU, IPO11 / Fold change vs veh, IPO11 / RFU, DFFB / Fold change vs veh, DFFB / RFU, FOXP1 / Fold change vs veh, FOXP1 / RFU, CARD8 / Fold change vs veh, CARD8 / RFU, STRN3 / Fold change vs veh, STRN3 / RFU, ADK / Fold change vs veh, ADK / RFU, RASSF2 / Fold change vs veh, RASSF2 / RFU, WIPF1 / Fold change vs veh, WIPF1 / RFU, LARP1B / Fold change vs veh, LARP1B / RFU, RASA1 / Fold change vs veh, RASA1 / RFU, RB1 / Fold change vs veh, RB1 / RFU, PPFIA1 / Fold change vs veh, PPFIA1 / RFU, MAT2A / Fold change vs veh, MAT2A / RFU, CCT5 / Fold change vs veh, CCT5 / RFU, WDR92 / Fold change vs veh, WDR92 / RFU, CUX1 / Fold change vs veh, CUX1 / RFU, TTC7A / Fold change vs veh, TTC7A / RFU, TMEM135 / Fold change vs veh, TMEM135 / RFU, DEPTOR / Fold change vs veh, DEPTOR / RFU, CPM / Fold change vs veh, CPM / RFU, DNAJB6 / Fold change vs veh, DNAJB6 / RFU, CACNA2D3 / Fold change vs veh, CACNA2D3 / RFU, DTX4 / Fold change vs veh, DTX4 / RFU, TFCP2 / Fold change vs veh, TFCP2 / RFU, GMCL1 /// GMCL1P1 / Fold change vs veh, GMCL1 /// GMCL1P1 / RFU, AEBP2 / Fold change vs veh, AEBP2 / RFU, SNHG1 /// SNORD22 /// SNORD25 /// SNORD26 /// SNORD27 /// SNORD28 /// SNORD29 /// SNORD31 / Fold change vs veh, SNHG1 /// SNORD22 /// SNORD25 /// SNORD26 /// SNORD27 /// SNORD28 /// SNORD29 /// SNORD31 / Fold change (Aza/veh), C12orf56 (ProbeSet 11735607_a_at) / Fold change (ACY-1035/veh), C12orf56 (ProbeSet 11735607_a_at) / Fold change (Aza/veh), FGFR1OP (ProbeSet 11751329_s_at) / Fold change (ACY-1035/veh), FGFR1OP (ProbeSet 11751329_s_at) / Fold change (Aza/veh), VPS36 (ProbeSet 11739960_a_at) / Fold change (ACY-1035/veh), VPS36 (ProbeSet 11739960_a_at) / RFU SYPL1 (11715823_x_at) / Fold change /veh SYPL1 (11715823_x_at) / RFU IGFBP7 (11715501_s_at) / Fold change /veh IGFBP7 (11715501_s_at) / RFU REEP3 (11722064_at) / Fold change /veh REEP3 (11722064_at) / RFU IGLL1 (11728026_x_at) / Fold change /veh IGLL1 (11728026_x_at): dose or concentration left out as unconfirmed
Conditions: ProbeSet 11763895_x_at; LIST B

## Nc1ccc(-c2cccs2)cc1NC(=O)c1ccc2c(c1)cc(C1CC1)n2CCN1CCOCC1 [ACY-1035]
  RFU, SNORA58: 14.97 RFU
